Reference: patent US8952024B2, “Herbicidal pyrimidone derivatives” (E I du Pont de Nemours and Company, priority 2009, dated 2015)

Legend:
Type in all cases: in vivo
[1] = system: canarygrass (Phalaris minor); assay: Test B postemergence plant response
Method in brief: (§1)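 Visual ratings from 0 (no effect) to 100 (complete control), made against controls 13–15 days after treatment, kept in a greenhouse. Compounds were applied postemergence to potted plants at the 1- to 4-leaf stage (2–18 cm).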

[2] = system: windgrass (Apera spica-venti); assay: Test B postemergence plant response
Method in brief: as §1

[3] = system: chickweed (Stellaria media); assay: Test B postemergence plant response
Method in brief: as §1

[4] = system: Italian ryegrass (Lolium multiflorum); assay: Test B pre-/postemergence plant response
Method in brief: (§2)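 Each species received compound formulated in non-phytotoxic solvent with surfactant, either at planting into a loam and sand blend or as a foliar spray once plants reached 2 to 18 cm in peat-based medium. Plants stayed in the greenhouse 13 to 15 days before visual evaluation against controls, scored 0 (no effect) to 100 (complete control).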

[5] = system: Surinam grass (Brachiaria decumbens); assay: Test B pre-/postemergence plant response
Method in brief: as §2

[6] = system: cocklebur (Xanthium strumarium); assay: Test B pre-/postemergence plant response
Method in brief: as §2

[7] = system: giant foxtail (Setaria faberii); assay: Test B pre-/postemergence plant response
Method in brief: as §2

[8] = system: pigweed (Amaranthus retroflexus); assay: Test B pre-/postemergence plant response
Method in brief: as §2

[9] = system: downy bromegrass (Bromus tectorum); assay: Test B pre-/postemergence plant response
Method in brief: as §2

[10] = system: corn (Zea mays); assay: Test B pre-/postemergence plant response
Method in brief: as §2

[11] = system: wild oat (Avena fatua); assay: Test B pre-/postemergence plant response
Method in brief: as §2

[12] = system: morningglory (Ipomoea coccinea); assay: Test B pre-/postemergence plant response
Method in brief: as §2

[13] = system: blackgrass (Alopecurus myosuroides); assay: Test B pre-/postemergence plant response
Method in brief: as §2

[14] = Postemergence, 31 g ai/ha, 0 to 100 scale (0 no effect, 100 complete control)
[15] = Postemergence, 62 g ai/ha, scale 0 to 100 (0 no effect, 100 complete control)
[16] = Postemergence, 125 g ai/ha, scale 0 to 100 (0 no effect, 100 complete control)
[17] = Postemergence, 250 g ai/ha, scale 0 to 100 (0 no effect, 100 complete control), 13 to 15 days
[18] = Preemergence, 31 g ai/ha, scale 0 to 100 (0 no effect, 100 complete control)
[19] = Preemergence, 62 g ai/ha, scale 0 to 100 (0 no effect, 100 complete control)
[20] = Preemergence, 125 g ai/ha, scale 0 to 100, 0 no effect, 100 complete control
[21] = Preemergence, 250 g ai/ha, 0 to 100 scale
[22] = Postemergence, 125 g ai/ha, scale 0 (no effect) to 100 (complete control), 13 to 15 days
[23] = 31 g ai/ha, postemergence, scale 0 to 100, 0 is no effect, 100 is complete control
[24] = 62 g ai/ha, postemergence, 0 is no effect, 100 is complete control, 13 to 15 days
[25] = Postemergence, 125 g ai/ha, visual rating after 13 to 15 days, scale 0 (no effect) to 100 (complete control)
[26] = Postemergence, 250 g ai/ha, scale 0 to 100 (0 no effect, 100 complete control)

SMILES: COc1ccc(-n2c(-c3ccccc3)ncc(C(=O)C3=C(O)CCCC3=O)c2=O)cc1OC [Compound 218]
- Plant response rating, Canarygrass [1, 14]: 0
- Plant response rating, Canarygrass [1, 15]: 0
- Plant response rating, Canarygrass [1, 16]: 0
- Plant response rating, Canarygrass [1, 17]: 5
- Plant response rating, Windgrass [2, 14]: 10
- Plant response rating, Windgrass [2, 15]: 20
- Plant response rating, Windgrass [2, 17]: 45
- Plant response rating, Chickweed [3, 14]: 100
- Plant response rating, Chickweed [3, 15]: 100
- Plant response rating, Chickweed [3, 16]: 100
- Plant response rating, Chickweed [3, 17]: 100
- Plant response rating, Ryegrass, Italian [4, 14]: 30
- Plant response rating, Ryegrass, Italian [4, 15]: 40
- Plant response rating, Ryegrass, Italian [4, 17]: 70
- Plant response rating, Ryegrass, Italian [4, 18]: 0
- Plant response rating, Ryegrass, Italian [4, 19]: 0
- Plant response rating, Ryegrass, Italian [4, 20]: 5
- Ryegrass, Italian plant response rating [4, 21]: 5
- Plant response rating, Surinam Grass [5, 14]: 75
- Plant response rating, Surinam Grass [5, 15]: 80
- Plant response rating, Surinam Grass [5, 17]: 90
- Plant response rating, Surinam Grass [5, 18]: 10
- Plant response rating, Surinam Grass [5, 19]: 65
- Plant response rating, Surinam Grass [5, 20]: 98
- Surinam Grass plant response rating [5, 21]: 100
- Plant response rating, Cocklebur [6, 19]: 0
- Plant response rating, Cocklebur [6, 20]: 90
- Cocklebur plant response rating [6, 21]: 100
- Plant response rating, Foxtail, Giant [7, 14]: 40
- Plant response rating, Foxtail, Giant [7, 15]: 55
- Plant response rating, Foxtail, Giant [7, 16]: 65
- Plant response rating, Foxtail, Giant [7, 17]: 85
- Plant response rating, Foxtail, Giant [7, 18]: 0
- Plant response rating, Foxtail, Giant [7, 19]: 0
- Plant response rating, Foxtail, Giant [7, 20]: 20
- Foxtail, Giant plant response rating [7, 21]: 85
- Plant response rating, Pigweed [8, 14]: 100
- Plant response rating, Pigweed [8, 15]: 100
- Plant response rating, Pigweed [8, 17]: 100
- Plant response rating, Pigweed [8, 18]: 100
- Plant response rating, Pigweed [8, 19]: 100
- Plant response rating, Pigweed [8, 20]: 100
- Pigweed plant response rating [8, 21]: 100
- Plant response rating, Bromegrass, Downy [9, 14]: 5
- Plant response rating, Bromegrass, Downy [9, 15]: 15
- Plant response rating, Bromegrass, Downy [9, 16]: 20
- Plant response rating, Bromegrass, Downy [9, 17]: 30
- Plant response rating, Bromegrass, Downy [9, 18]: 0
- Plant response rating, Bromegrass, Downy [9, 19]: 0
- Plant response rating, Bromegrass, Downy [9, 20]: 0
- Bromegrass, Downy plant response rating [9, 21]: 0
- Plant response rating, Corn [10, 14]: 0
- Plant response rating, Corn [10, 15]: 10
- Plant response rating, Corn [10, 16]: 75
- Plant response rating, Corn [10, 17]: 80
- Plant response rating, Corn [10, 18]: 0
- Plant response rating, Corn [10, 19]: 0
- Plant response rating, Corn [10, 20]: 0
- Corn plant response rating [10, 21]: 0
- Plant response rating, Oat, Wild [11, 14]: 40
- Plant response rating, Oat, Wild [11, 15]: 45
- Plant response rating, Oat, Wild [11, 17]: 60
- Plant response rating, Oat, Wild [11, 18]: 0
- Plant response rating, Oat, Wild [11, 19]: 0
- Plant response rating, Oat, Wild [11, 20]: 0
- Oat, Wild plant response rating [11, 21]: 0
- Plant response rating, Morningglory [12, 14]: 70
- Plant response rating, Morningglory [12, 15]: 70
- Plant response rating, Morningglory [12, 16]: 80
- Plant response rating, Morningglory [12, 17]: 98
- Plant response rating, Morningglory [12, 18]: 0
- Plant response rating, Morningglory [12, 19]: 0
- Plant response rating, Morningglory [12, 20]: 15
- Morningglory plant response rating [12, 21]: 65
- Plant response rating, Blackgrass [13, 14]: 0
- Plant response rating, Blackgrass [13, 15]: 0
- Plant response rating, Blackgrass [13, 16]: 5
- Plant response rating, Blackgrass [13, 17]: 5
- Plant response rating, Blackgrass [13, 18]: 0
- Plant response rating, Blackgrass [13, 19]: 0
- Plant response rating, Blackgrass [13, 20]: 0
- Blackgrass plant response rating [13, 21]: 20

SMILES: CCn1c(-c2ccccc2)ncc(C(=O)C2=C(O)C3CCC(C3)C2=O)c1=O (centres unmarked) [Compound 239]
- Plant response rating, Canarygrass [1, 14]: 0
- Plant response rating, Canarygrass [1, 15]: 0
- Plant response rating, Canarygrass [1, 22]: 0
- Plant response rating, Canarygrass [1, 17]: 0
- Plant response rating, Windgrass [2, 14]: 20
- Plant response rating, Windgrass [2, 15]: 30
- Plant response rating, Windgrass [2, 22]: 30
- Plant response rating, Windgrass [2, 17]: 70
- Plant response rating, Chickweed [3, 14]: 90
- Plant response rating, Chickweed [3, 15]: 98
- Plant response rating, Chickweed [3, 22]: 98
- Plant response rating, Chickweed [3, 17]: 100
- Plant response rating, Ryegrass, Italian [4, 14]: 0
- Plant response rating, Ryegrass, Italian [4, 15]: 0
- Plant response rating, Ryegrass, Italian [4, 22]: 0
- Plant response rating, Ryegrass, Italian [4, 17]: 0
- Plant response rating, Surinam Grass [5, 14]: 25
- Plant response rating, Surinam Grass [5, 15]: 35
- Plant response rating, Surinam Grass [5, 22]: 45
- Plant response rating, Surinam Grass [5, 17]: 75
- Plant response rating, Cocklebur [6, 14]: 90
- Plant response rating, Cocklebur [6, 15]: 100
- Plant response rating, Cocklebur [6, 22]: 100
- Plant response rating, Cocklebur [6, 17]: 100
- Plant response rating, Foxtail, Giant [7, 14]: 75
- Plant response rating, Foxtail, Giant [7, 15]: 85
- Plant response rating, Foxtail, Giant [7, 22]: 90
- Plant response rating, Foxtail, Giant [7, 17]: 98
- Plant response rating, Pigweed [8, 14]: 95
- Plant response rating, Pigweed [8, 15]: 98
- Plant response rating, Pigweed [8, 22]: 98
- Plant response rating, Pigweed [8, 17]: 100
- Plant response rating, Bromegrass, Downy [9, 14]: 0
- Plant response rating, Bromegrass, Downy [9, 15]: 5
- Plant response rating, Bromegrass, Downy [9, 22]: 5
- Plant response rating, Bromegrass, Downy [9, 17]: 10
- Plant response rating, Corn [10, 14]: 5
- Plant response rating, Corn [10, 15]: 45
- Plant response rating, Corn [10, 22]: 45
- Plant response rating, Corn [10, 17]: 75
- Plant response rating, Oat, Wild [11, 14]: 0
- Plant response rating, Oat, Wild [11, 15]: 5
- Plant response rating, Oat, Wild [11, 22]: 5
- Plant response rating, Oat, Wild [11, 17]: 30
- Plant response rating, Morningglory [12, 14]: 95
- Plant response rating, Morningglory [12, 22]: 100
- Plant response rating, Morningglory [12, 17]: 100
- Plant response rating, Blackgrass [13, 14]: 5
- Plant response rating, Blackgrass [13, 15]: 5
- Plant response rating, Blackgrass [13, 22]: 30
- Plant response rating, Blackgrass [13, 17]: 50

SMILES: O=C1CCCC(O)=C1C(=O)c1cnc(-c2ccccc2Br)n(-c2ccccc2)c1=O [Compound 71]
- Plant response rating, Canarygrass [1, 23]: 0
- Canarygrass plant response rating (0 to 100 scale) [1, 24]: 5
- Plant response rating, Canarygrass [1, 25]: 5
- Plant response rating, Canarygrass [1, 26]: 20
- Plant response rating, Windgrass [2, 23]: 5
- Windgrass plant response rating (0 to 100 scale) [2, 24]: 10
- Plant response rating, Windgrass [2, 25]: 45
- Plant response rating, Windgrass [2, 26]: 60
- Plant response rating, Chickweed [3, 23]: 75
- Chickweed plant response rating (0 to 100 scale) [3, 24]: 90
- Plant response rating, Chickweed [3, 25]: 95
- Plant response rating, Chickweed [3, 26]: 98
- Plant response rating, Ryegrass, Italian [4, 23]: 0
- Ryegrass, Italian plant response rating (0 to 100 scale) [4, 24]: 0
- Plant response rating, Ryegrass, Italian [4, 25]: 0
- Plant response rating, Ryegrass, Italian [4, 26]: 5
- Plant response rating, Surinam Grass [5, 23]: 50
- Surinam Grass plant response rating (0 to 100 scale) [5, 24]: 55
- Plant response rating, Surinam Grass [5, 25]: 65
- Plant response rating, Surinam Grass [5, 26]: 85
- Plant response rating, Cocklebur [6, 23]: 65
- Cocklebur plant response rating (0 to 100 scale) [6, 24]: 65
- Plant response rating, Cocklebur [6, 25]: 95
- Plant response rating, Cocklebur [6, 26]: 95
- Plant response rating, Foxtail, Giant [7, 23]: 20
- Foxtail, Giant plant response rating (0 to 100 scale) [7, 24]: 75
- Plant response rating, Foxtail, Giant [7, 25]: 80
- Plant response rating, Foxtail, Giant [7, 26]: 95
- Plant response rating, Pigweed [8, 23]: 85
- Pigweed plant response rating (0 to 100 scale) [8, 24]: 85
- Plant response rating, Pigweed [8, 25]: 98
- Plant response rating, Pigweed [8, 26]: 100
- Plant response rating, Bromegrass, Downy [9, 23]: 0
- Bromegrass, Downy plant response rating (0 to 100 scale) [9, 24]: 5
- Plant response rating, Bromegrass, Downy [9, 25]: 10
- Plant response rating, Bromegrass, Downy [9, 26]: 30
- Plant response rating, Corn [10, 23]: 0
- Corn plant response rating (0 to 100 scale) [10, 24]: 0
- Plant response rating, Corn [10, 25]: 0
- Plant response rating, Corn [10, 26]: 15
- Plant response rating, Oat, Wild [11, 23]: 0
- Oat, Wild plant response rating (0 to 100 scale) [11, 24]: 0
- Plant response rating, Oat, Wild [11, 25]: 0
- Plant response rating, Oat, Wild [11, 26]: 5
- Plant response rating, Morningglory [12, 23]: 65
- Morningglory plant response rating (0 to 100 scale) [12, 24]: 65
- Plant response rating, Morningglory [12, 25]: 75
- Plant response rating, Morningglory [12, 26]: 80
- Plant response rating, Blackgrass [13, 23]: 0
- Blackgrass plant response rating (0 to 100 scale) [13, 24]: 0
- Plant response rating, Blackgrass [13, 25]: 0
- Plant response rating, Blackgrass [13, 26]: 5
